Measurements reported in ChEMBL document CHEMBL1150903, “Complement-inhibiting cucurbitacin glycosides from Picria fel-terrae” (J Nat Prod, 1998).
Calls of active or inactive are those of the source. The calls are words filed in the database; no cut-off is given here.

Experiments:
[1] = Inhibition of human serum alternative complement system assessed as modulation of complement pathway by alternative hemolytic complement assay
[2] = Inhibition of human serum classical complement system assessed as modulation of complement pathway by classical hemolytic complement assay
Staphylococcus aureus = test: Antibacterial activity against Staphylococcus aureus; format: functional
Aspergillus niger = test: Antifungal activity against Aspergillus niger; format: functional
Escherichia coli = test: Antibacterial activity against Escherichia coli; format: functional
Candida albicans = test: Antifungal activity against Candida albicans; format: functional
Human alphaherpesvirus 1 = test: Antiviral activity against HSV1 assessed as reduction factor of viral titer at 100 ug/ml; format: functional, organism-based
Trichophyton rubrum = test: Antifungal activity against Trichophyton rubrum; format: functional
Bacillus cereus = test: Antibacterial activity against Bacillus cereus; format: functional
Pseudomonas aeruginosa = test: Antibacterial activity against Pseudomonas aeruginosa; format: functional
[3] = Inhibition of human serum classical complement system assessed as modulation of complement pathway at 420 uM by classical hemolytic complement assay
[4] = Growth inhibition of human NCI60 cells; format: functional
SF-295 = test: Growth inhibition of human SF295 cells; format: functional

Structure (SMILES)	IC50 [1] [µM]	IC50 [2] [µM]	MIC (Staphylococcus aureus) [µg/mL]	MIC (Aspergillus niger) [µg/mL]	MIC (Escherichia coli) [µg/mL]	Activity [1]	Activity [2]	MIC (Candida albicans) [µg/mL]	Activity (Human alphaherpesvirus 1)	MIC (Trichophyton rubrum) [µg/mL]	MIC (Bacillus cereus) [µg/mL]	MIC (Pseudomonas aeruginosa) [µg/mL]	inhibition [3] [%]	GI50 [4] [µM]	TGI [4] [µM]	GI50 (SF-295) [µM]
O=C(/C=C/c1ccc(O)c(O)c1)O[C@H](Cc1ccc(O)c(O)c1)C(=O)O [ROSMARINIC ACID]	408	81	–	–	–	–	–	–	–	–	–	–	–	–	–	–
CC(C)C1=CC(=O)[C@](C)([C@H]2[C@H](O)C[C@@]3(C)[C@@H]4CC=C5[C@@H](CC[C@@H](O[C@@H]6OC[C@@H](O)[C@H](O)[C@H]6O)C5(C)C)[C@]4(C)C(=O)C[C@]23C)O1 [PICFELTARRACEMIN VI]	21	29	> 100	> 100	> 100	Dose-dependent effect	Dose-dependent effect	> 100	Active	> 100	> 100	> 100	–	–	–	–
CC(C)C1=CC(=O)[C@](C)([C@H]2[C@H](O)C[C@@]3(C)[C@@H]4CC=C5[C@@H](CC[C@@H](O[C@@H]6OC[C@@H](O)[C@H](O[C@@H]7O[C@H](CO)[C@@H](O)[C@H](O)[C@H]7O[C@@H]7O[C@@H](C)[C@H](O)[C@@H](O)[C@H]7O)[C@H]6O)C5(C)C)[C@]4(C)C(=O)C[C@]23C)O1 [PICFELTARRACEMIN IV]	313	131	> 100	> 100	> 100	Dose-dependent effect	Dose-dependent effect	> 100	Active	> 100	> 100	> 100	–	–	–	–
CC(C)C1=CC(=O)[C@](C)([C@H]2[C@H](O)C[C@@]3(C)[C@@H]4CC=C5[C@@H](CC[C@@H](O[C@@H]6O[C@H](CO)[C@@H](O)[C@H](O)[C@H]6O[C@@H]6O[C@@H](C)[C@H](O)[C@@H](O)[C@H]6O)C5(C)C)[C@]4(C)C(=O)C[C@]23C)O1 [PICFELTARRACEMIN IB]	68	> 420	> 100	> 100	> 100	Dose-dependent effect	Dose-dependent effect	> 100	Active	> 100	> 100	> 100	48	> 100	> 100	–
CC(C)C1=CC(=O)[C@](C)([C@H]2[C@H](O)C[C@@]3(C)[C@@H]4CC=C5[C@@H](CC[C@@H](O[C@@H]6OC[C@@H](O)[C@H](O)[C@H]6O[C@@H]6O[C@@H](C)[C@H](O)[C@@H](O)[C@H]6O)C5(C)C)[C@]4(C)C(=O)C[C@]23C)O1 [PICFELTARRACEMIN IA]	336	95	> 100	> 100	> 100	Dose-dependent effect	Dose-dependent effect	> 100	Active	> 100	> 100	> 100	–	> 100	> 100	59
